Values of other authors, collected in US8097457B2, “Liquid crystalline substrates for culturing cells” (Wisconsin Alumni Research Foundation, priority 2005, dated 2012).

Tested on: live cells
Settings: contacted with live cells for short periods of time

CCCCCc1ccc(-c2ccc(C#N)cc2)cc1 [5CB, 4′-pentyl-4-cyanobiphenyl]
toxicity to live cells: cause cell death
